# Results from the supplement of paper PMC10307832.
# Assays:
# Assay in all cases: relative viability (nuclei count vs DMSO), 5 days (fraction); higher = more cells survive
# 17-AAG + Phenformin = compound: C=CCNC1=C2C[C@@H](C)C[C@H](OC)[C@H](O)[C@@H](C)/C=C(\C)[C@H](OC(N)=O)[C@@H](OC)/C=C\C=C(/C)C(=O)NC(=CC1=O)C2=O [17-AAG] + N=C(N)NC(=N)NCCc1ccccc1 [Phenformin] (partner 250 µM)
# In short: (§1)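 For relative viability, nuclei counts in treated wells were divided by those in vehicle wells. Lung cancer cell lines had been pin-tool dosed in 1536-well plates the day after seeding and cultured for 5 days, then fixed and stained in one step (final 0.05% Triton X-100, 1% formaldehyde, 1 ug/ml Hoechst) and imaged at 4×. Doses were one drug alone or a fixed anchor-drug dose plus five library-drug doses (not always all listed) in √10 steps, and values are duplicate-plate medians.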
# 17-AAG + Navitoclax = compound: C=CCNC1=C2C[C@@H](C)C[C@H](OC)[C@H](O)[C@@H](C)/C=C(\C)[C@H](OC(N)=O)[C@@H](OC)/C=C\C=C(/C)C(=O)NC(=CC1=O)C2=O [17-AAG] + CC1(C)CCC(c2ccc(Cl)cc2)=C(CN2CCN(c3ccc(C(=O)NS(=O)(=O)c4ccc(N[C@H](CCN5CCOCC5)CSc5ccccc5)c(S(=O)(=O)C(F)(F)F)c4)cc3)CC2)C1 [Navitoclax] (partner 0.5 µM)
# In short: as §1
# 17-AAG + Trametinib = compound: C=CCNC1=C2C[C@@H](C)C[C@H](OC)[C@H](O)[C@@H](C)/C=C(\C)[C@H](OC(N)=O)[C@@H](OC)/C=C\C=C(/C)C(=O)NC(=CC1=O)C2=O [17-AAG] + CC(=O)Nc1cccc(-n2c(=O)n(C3CC3)c(=O)c3c(Nc4ccc(I)cc4F)n(C)c(=O)c(C)c32)c1 [Trametinib] (partner 0.02 µM)
# In short: as §1
# 17-AAG + Pemetrexed = compound: C=CCNC1=C2C[C@@H](C)C[C@H](OC)[C@H](O)[C@@H](C)/C=C(\C)[C@H](OC(N)=O)[C@@H](OC)/C=C\C=C(/C)C(=O)NC(=CC1=O)C2=O [17-AAG] + Nc1nc2[nH]cc(CCc3ccc(C(=O)N[C@@H](CCC(=O)O)C(=O)O)cc3)c2c(=O)[nH]1 [Pemetrexed] (partner 0.2 µM)
# In short: as §1
Cell Line,relative viability (17-AAG + Phenformin; first compound 0.00128 µM),relative viability (17-AAG + Phenformin; first compound 0.004048 µM),relative viability (17-AAG + Phenformin; first compound 0.0128 µM),relative viability (17-AAG + Phenformin; first compound 0.04048 µM),relative viability (17-AAG + Phenformin; first compound 0.128 µM),relative viability (17-AAG + Navitoclax; first compound 0.00128 µM),relative viability (17-AAG + Navitoclax; first compound 0.004048 µM),relative viability (17-AAG + Navitoclax; first compound 0.0128 µM),relative viability (17-AAG + Navitoclax; first compound 0.04048 µM),relative viability (17-AAG + Navitoclax; first compound 0.128 µM),relative viability (17-AAG + Trametinib; first compound 0.00128 µM),relative viability (17-AAG + Trametinib; first compound 0.004048 µM),relative viability (17-AAG + Trametinib; first compound 0.0128 µM),relative viability (17-AAG + Trametinib; first compound 0.04048 µM),relative viability (17-AAG + Trametinib; first compound 0.128 µM),relative viability (17-AAG + Pemetrexed; first compound 0.00128 µM),relative viability (17-AAG + Pemetrexed; first compound 0.004048 µM),relative viability (17-AAG + Pemetrexed; first compound 0.0128 µM),relative viability (17-AAG + Pemetrexed; first compound 0.04048 µM),relative viability (17-AAG + Pemetrexed; first compound 0.128 µM)
SK-MES-1,0.697,0.561,0.389,0.202,0.194,1.17,1.12,0.951,0.162,0.131,0.562,0.401,0.221,0.179,0.168,0.951,0.781,0.284,0.171,0.153
A-427,0.353,0.347,0.374,0.271,0.167,0.95,0.946,0.891,0.991,0.986,0.799,0.759,0.946,0.419,0.282,0.974,0.961,0.97,0.321,0.265
NCI-H441,0.877,0.397,0.184,0.182,0.129,0.527,0.335,0.157,0.262,0.131,0.454,0.439,0.148,0.132,0.0927,0.255,0.28,0.284,0.106,0.125
HCC-366,0.653,0.591,0.159,0.0455,0.0292,1.06,1.02,0.358,0.0314,0.0217,0.399,0.389,0.0548,0.0372,0.0284,0.207,0.311,0.127,0.0359,0.0398
NCI-H1975,0.385,0.287,0.204,0.13,0.0987,1.23,0.928,0.453,0.186,0.145,0.319,0.358,0.207,0.124,0.147,0.299,0.338,0.191,0.162,0.156
NCI-H1437,0.312,0.316,0.179,0.153,0.129,1.11,0.939,0.936,0.162,0.132,0.582,0.562,0.32,0.291,0.195,0.348,0.37,0.246,0.214,0.154
NCI-H2009,0.499,0.43,0.481,0.412,0.128,1.1,1.09,1.07,0.884,0.369,0.276,0.269,0.252,0.218,0.0853,1.01,1.03,1.04,0.86,0.166
NCI-H1651,0.335,0.548,0.242,0.151,0.107,1.05,0.882,1.01,0.214,0.148,0.781,0.855,0.838,0.77,0.604,0.635,0.605,0.585,0.536,0.173
NCI-H1666,0.547,0.56,0.432,0.316,0.329,0.958,0.699,0.277,0.314,0.236,0.858,0.826,0.639,0.575,0.481,0.921,0.877,0.908,0.515,0.517
NCI-H1734,0.371,0.368,0.305,0.142,0.118,0.871,0.811,0.756,0.24,0.114,0.759,0.633,0.576,0.245,0.15,0.4,0.474,0.475,0.261,0.161
EPLC-272H,0.32,0.327,0.202,0.095,0.0918,1.11,1.21,1.02,1.06,0.225,0.278,0.268,0.229,0.169,0.135,0.404,0.365,0.166,0.145,0.0977
NCI-H2023,0.416,0.226,0.0687,0.0792,0.0691,0.989,0.867,0.641,0.11,0.112,0.557,0.266,0.0867,0.0826,0.0692,0.268,0.137,0.0942,0.0647,0.0873
BEN,0.268,0.26,0.222,0.197,0.167,0.069,0.0609,0.0634,0.052,0.0666,1.07,1.16,1.31,1.07,0.613,0.756,0.882,0.716,0.526,0.247
